How the values were obtained:
Assay in all cases: relative viability (nuclei count vs DMSO), 5 days (fraction); higher = more cells survive
[1] = compound: Nc1ccn([C@@H]2O[C@H](CO)[C@@H](O)C2(F)F)c(=O)n1 [Gemcitabine]
How it was run: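 Viability was read as treated-well nuclei divided by vehicle-well nuclei, using the median across plates. Lung cancer cell lines in 1536-well plates were kept overnight at 37 °C, pinned with five √10-spaced library-drug doses, and after 5 days were Hoechst-stained, imaged at 4× and counted in MetaXpress. Plates passed only with control CV below 25% and at least one doubling.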

[2] = compound: Nc1ccn([C@@H]2O[C@H](CO)[C@@H](O)C2(F)F)c(=O)n1 [Gemcitabine] + CC1(C)CCC(c2ccc(Cl)cc2)=C(CN2CCN(c3ccc(C(=O)NS(=O)(=O)c4ccc(N[C@H](CCN5CCOCC5)CSc5ccccc5)c(S(=O)(=O)C(F)(F)F)c4)cc3)CC2)C1 [Navitoclax] (partner 0.5 µM)
How it was run: (§1)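 A single step with final 0.05% Triton X-100, 1% formaldehyde and 1 ug/ml Hoechst fixed the cells and stained nuclei 5 days after treatment. Lung cancer cell lines in 1536-well plates had been treated by pin tool the day after seeding with one drug alone or a fixed anchor-drug dose plus five library-drug doses (not always all listed) in √10 steps, and nuclei were counted on 4× images. Relative viability is the ratio of nuclei in treated wells to nuclei in vehicle wells, taken as the median of duplicate plates.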

[3] = compound: Nc1ccn([C@@H]2O[C@H](CO)[C@@H](O)C2(F)F)c(=O)n1 [Gemcitabine] + Cc1cc(Nc2cc(N3CCN(C)CC3)nc(Sc3ccc(NC(=O)C4CC4)cc3)n2)n[nH]1 [Tozasertib] (partner 0.1 µM)
How it was run: as §1

[4] = compound: Nc1ccn([C@@H]2O[C@H](CO)[C@@H](O)C2(F)F)c(=O)n1 [Gemcitabine] + N=C(N)NC(=N)NCCc1ccccc1 [Phenformin] (partner 250 µM)
How it was run: as §1

Cell Line | relative viability ([1]; 0.001 µM) | relative viability ([1]; 0.003162 µM) | relative viability ([1]; 0.01 µM) | relative viability ([1]; 0.03162 µM) | relative viability ([1]; 0.1 µM) | relative viability ([2]; first compound 0.001 µM) | relative viability ([2]; first compound 0.003162 µM) | relative viability ([2]; first compound 0.01 µM) | relative viability ([2]; first compound 0.03162 µM) | relative viability ([2]; first compound 0.1 µM) | relative viability ([3]; first compound 0.001 µM) | relative viability ([3]; first compound 0.003162 µM) | relative viability ([3]; first compound 0.01 µM) | relative viability ([3]; first compound 0.03162 µM) | relative viability ([3]; first compound 0.1 µM) | relative viability ([4]; first compound 0.001 µM) | relative viability ([4]; first compound 0.003162 µM) | relative viability ([4]; first compound 0.01 µM) | relative viability ([4]; first compound 0.03162 µM) | relative viability ([4]; first compound 0.1 µM)
NCI-H596 | 1.32 | 0.929 | 0.564 | 0.31 | 0.283 | 1.06 | 0.949 | 0.506 | 0.23 | 0.171 | 0.922 | 0.589 | 0.391 | 0.306 | 0.223 | 0.74 | 0.612 | 0.489 | 0.262 | 0.306
NCI-H647 | 0.786 | 0.202 | 0.0889 | 0.0675 | 0.0582 | 0.916 | 0.253 | 0.0668 | 0.0642 | 0.0514 | 0.395 | 0.098 | 0.0474 | 0.0387 | 0.0371 | 0.334 | 0.144 | 0.058 | 0.0604 | 0.0397
NCI-H727 | 0.802 | 0.567 | 0.347 | 0.332 | 0.32 | 0.311 | 0.229 | 0.115 | 0.146 | 0.081 | 0.571 | 0.443 | 0.352 | 0.431 | 0.321 | 0.46 | 0.448 | 0.348 | 0.419 | 0.322
NCI-H838 | 0.987 | 1.15 | 1.05 | 0.467 | 0.153 | 1.17 | 1.36 | 1.09 | 0.367 | 0.176 | 0.283 | 0.277 | 0.263 | 0.164 | 0.121 | 0.634 | 0.675 | 0.521 | 0.19 | 0.0985
NCI-H1355 | 0.987 | 0.818 | 0.392 | 0.187 | 0.152 | 0.937 | 0.461 | 0.168 | 0.109 | 0.112 | 0.508 | 0.393 | 0.189 | 0.18 | 0.169 | 0.444 | 0.297 | 0.214 | 0.202 | 0.178
NCI-H1395 | 0.779 | 0.594 | 0.422 | 0.365 | 0.364 | 1.05 | 0.859 | 0.525 | 0.61 | 0.414 | 0.676 | 0.674 | 0.429 | 0.367 | 0.334 | 0.403 | 0.417 | 0.321 | 0.315 | 0.318
NCI-H1437 | 1.01 | 0.854 | 0.705 | 0.362 | 0.21 | 1.06 | 1.05 | 0.555 | 0.206 | 0.111 | 0.447 | 0.418 | 0.347 | 0.297 | 0.156 | 0.313 | 0.213 | 0.193 | 0.17 | 0.112
NCI-H1650 | 1.04 | 0.572 | 0.271 | 0.154 | 0.163 | 1.57 | 0.851 | 0.434 | 0.176 | 0.11 | 0.507 | 0.348 | 0.273 | 0.119 | 0.113 | 0.437 | 0.202 | 0.154 | 0.129 | 0.121

Source: the supplement of paper PMC10307832
